Measured values: patent publication US11564913B2, “Compositions and methods for treating cancer” (Children's Hospital Medical Center, priority 2019, dated 2023)

Key:
Rac1 = target: T1, Rac1 (Homo sapiens, UniProt P63000); test: Microscale thermophoresis (MST) binding; details: no saturation at highest concentration tested, read-out: Kd, best estimate
T1 construct: His6 (N); made in house
Protocol: FIG. 14: IODVA1 targets Vav3 in vitro and in vivo. (A) Ba/F3 cells expressing empty vector Mieg3 or p190-BCR-ABL1 were treated with vehicle control or IODVA1 (IO1, 3 μM) for 30 min and incubated with GST-Rac and glutathione beads. Beads were washed and the protein complexes were separated on SDS-PAGE and immunoblotted for pVav3. Input Vav3 was used as control. (B) Binding affinity (Kd) between IODVA1 and Vav3 (green), LARG (brown), and RacGDP (blue). […] Error bars=SD; N=3. (C) Quantification of the average number of colonies made by bone marrow wild-type (black) and Vav3^−/− (lilac) p190-BCR-ABL1 leukemic cells treated with vehicle control or IODVA1 (IO1, 1 and 3 μM) (* p≤0.05; ** p≤0.01; *** p≤0.001; ns, not significant). (D) Representative histogram data of the cell cycle analysis of wild-type (black and grey bars) and Vav3^−/− (dark and light lilac) bone marrow cells expressing p190-BCR-ABL and treated with vehicle control or IODVA1 (IO1, 3 μM) for 20 h. (E) Quantification by densitometry of the pVav3 band from FIG. 14A. […]
To test this hypothesis, we measured its binding affinity (Kd) to recombinant Vav3 and Rac1 using microscale thermophoresis (MST); the catalytic domain (DH/PH) of the RhoGEF LARG served as negative control. […] Second, like Vav3, LARG contains a DH/PH domain responsible for the exchange activity such that any non-specific binding to this domain should be detected. […]

[1] = system: Ph-like and MLL-rearranged B-ALL patient cells; test: PDX cells ex vivo co-culture, survival; assay type: cell-based, human
Text: FIG. 18: IODVA1 reduces survival of leukemia cells derived from relapsed and de novo Ph-like and MLL pediatric patients. […] (A) to (E) de novo Ph-like leukemia cells. (F) Leukemic cells from MLL/AF9 and relapsed MLL/AF1q patients (G-H).
Our cohort of samples also contained numerous cases of Ph-like disease with a diverse series of genetic aberrations and a few cases of MLL-rearranged B-ALL.
Primary patient specimens were obtained from patients at CCHMC according to Institutional Review Board Approved protocols (#2008-0021 and #2008-0658). Samples were subjected to RBC lysis and the isolated WBCs were mixed with OKT3 anti-CD3 antibody to eliminate the potential for xenogenic Graft Versus Host Disease before injection into busulfan conditioned NSG or NRG mice^10. Spleen preparations from mice successfully engrafted with B-ALL were co-cultured with MS-5 or OP9 stroma in MEMα media supplemented with 20% FBS and 10 ng/mL recombinant human SCF (Kit-L), Flt3L, and IL-7 (KF7). IODVA1 was added 24 h after initial seeding. Co-cultures were collected by trypsinization after 7 days and cell counts were performed with trypan blue. […] Total absolute ALL cell numbers were determined by multiplying cell counts by percentage human ALL cells.

SMILES: OC1(c2ccccn2)N=C(Nc2nc3ccccc3[nH]2)N=C1c1ccccn1 (centres unmarked) [IODVA1, (Z)-2-((1H-benzo[d]imidazol-2-yl)imino)-4,5-di(pyridin-2-yl)-2,5-dihydro-1H-imidazol-5-ol]
- Kd (Rac1): ~35.5 µM
- response of patient cells [1]: generally responded positively
